In patent US9845302B2, “Anticancer compounds and process for the preparation thereof” (Council of Scientific and Industrial Research, priority 2013, dated 2017):

tested on: HL60-HUVEC cell adhesion; assay: HL60-HUVEC cell adhesion inhibition, 8 point dose dependent assay (TNF-α stimulated, Calcein AM fluorometric); assay type: cell-based; conditions: Homo sapiens; HUVEC dosed 2 hours with compound, 100 ng/mL TNF-α 4 hours, HL60 co-culture 30 mins
Description: Determination of Cell Adhesion Inhibition
An 8 point dose dependent assay was carried out to assess the IC50's of the test compounds.
10,000 HUVEC cells/well (passage number. 8) was seeded into a 96 well black clear bottom plate and cells were cultured for 4 days at 37° C. After the cell culture, HUVEC's were dosed with test compound and reference compound (peribysin E) at a top concentration of 100 μM (1:3 step down dilution-8 concentrations) and cells were cultured for 2 hours at 37° C. HUVEC's were treated with/without 100 ng/mL of TNF-α further cultured for 4 hours at 37° C. 100,000 HL60 cells/well (passage number. 16) was loaded with Calcein AM dye and co-cultured with HUVECs, and cells were cultured for 30 mins at 37° C. HL60-HUVEC cell adhesion was detected by a fluorometric method using a BMG Polarstar. (IC50=inhibition concentration at 50%). HL60-HUVEC Cell Adhesion-IC50 Assessment of Compound

Question: With C=C1CO[C@@H](OC)[C@]12C[C@@H]1[C@H](O)CC[C@@H](C)[C@]1(C)[C@H]2O (racemic) [Compound 11b, (1′R,2R,2′R,3a′S,4′R,7′R,7a′S)-2-methoxy-7′,7a′-dimethyl-4-methylenedecahydro-2H-spiro[furan-3,2′-indene]-1′,4′-diol] as the compound, how does the IC50 read?
Answer: Its IC50 is 4.28 µM.

Question: Which IC50 does the source give for C=C1CO[C@@H](OC)[C@]12C[C@@H]1C[C@@H](O)C[C@@H](C)[C@]1(C)[C@H]2O (racemic) [Peribysin E, (1′R,2R,2′R,3a′R,5′S,7′R,7a′S)-2-methoxy-7′,7a′-dimethyl-4-methylenedecahydro-2H-spiro[furan-3,2′-indene]-1′,5′-diol, reference compound] here?
Answer: The IC50 was 6.9 to 12.2 µM.

Question: With C=C1CO[C@@H](OC)[C@]12C[C@@H]1C[C@H](O)C[C@@H](C)[C@]1(C)[C@H]2O (racemic) [Compound 11a, (1′R,2R,2′R,3a′R,5′R,7′R,7a′S)-2-methoxy-7′,7a′-dimethyl-4-methylene decahydro-2H-spiro[furan-3,2′-indene]-1′,5′-diol] as the compound, how does the IC50 read?
Answer: Its IC50 is 10.4 µM.

Question: For C=C1CO[C@@H](OC)[C@]12C[C@@H]1C=CC[C@@H](C)[C@]1(C)[C@H]2O (racemic) [Compound 9, (2R,2′R,3′R,3a′S,4′R,7a′R)-2-methoxy-3a′,4′-dimethyl-4-methylene 1′,3′,3a′,4,4′,5,5′,7a′-octahydro-2H-spiro[furan-3,2′-inden]-3′-ol], which IC50 is on record?
Answer: The IC50 was 18.7 µM.

Question: For C=C1CO[C@@H](OC)[C@]12C[C@@H]1[C@@H]3O[C@@H]3C[C@@H](C)[C@]1(C)[C@H]2O (racemic) [Compound 10, (1a′R,2R,3R,3′R,3a′S,4′R,6a′S,6b′S)-2-methoxy-3′,3a′-dimethyl-4-methylenedecahydro-2H-spiro[furan-3,5′-indeno[4,5-b]oxiren]-4′-ol], which IC50 is on record?
Answer: Its IC50 is 15.8 µM.

Question: With C=C1CO[C@@H](OC)[C@]12C[C@@H]1CCC[C@@H](C)[C@]1(C)[C@H]2O (racemic) [Compound 20, (1′R,2R,2′R,3a′S,7′R,7a′S)-2-methoxy-7′,7a′-dimethyl-4-methylenedecahydro-2H-spiro[furan-3,2′-inden]-1′-ol] as the compound, how does the IC50 read?
Answer: Its IC50 is 11 µM.

Question: For C=C1CO[C@@H](OC)[C@]12C[C@@H]1[C@@H](O)CC[C@@H](C)[C@]1(C)[C@H]2O (racemic) [Compound 11c, (1′R,2R,2′R,3a′S,4′S,7′R,7a′S)-2-methoxy-7′,7a′-dimethyl-4-methylenedecahydro-2H-spiro[furan-3,2′-indene]-1′,4′-diol], which IC50 is on record?
Answer: The IC50 was 13.8 µM.

tested on: adhesion of leukemia HL-60 cells to human-umbilical-vein endothelial cells (HUVEC); assay: not given; conditions: HL-60 cells to HUVEC; background statement; cited from earlier work

Question: For C=C1CO[C@@H](OC)[C@]12C[C@@H]1C[C@@H](O)C[C@@H](C)[C@]1(C)[C@H]2O (racemic) [Peribysin E, (1′R,2R,2′R,3a′R,5′S,7′R,7a′S)-2-methoxy-7′,7a′-dimethyl-4-methylenedecahydro-2H-spiro[furan-3,2′-indene]-1′,5′-diol, reference compound], which “cell adhesion inhibitory activity” value is on record?
Answer: The value was “inhibit adhesion of leukemia HL-60 cells to human-umbilical-vein endothelial cells (HUVEC)”.

Question: For C=C1CO[C@@H](OC)[C@]12C[C@@H]1C[C@@H](O)C[C@@H](C)[C@]1(C)[C@H]2O [(−)-peribysin E], which “cell adhesion inhibitory activity” value is on record?
Answer: Its value is “more potent activity than the gold standard herbimycin”.
